The text below walks through data of paper PMC11997881, “Comprehensive Characterization of Bruton’s Tyrosine Kinase Inhibitor Specificity, Potency, and Biological Effects: Insights into Covalent and Noncovalent Mechanistic Signatures” (ACS Pharmacology & Translational Science, 2025).

In one assay the target is T1, wild-type BTK (Homo sapiens, UniProt Q06187).
T1 construct: made in house; host or cells: transiently transfected HEK293 cells (unpurified extract)
Nature of the assay: KdELECT competition binding, wild-type BTK. The method, then:
Using Eurofins Discovery’s KdELECT Kinase Assay Panel (San Diego, CA), we measured the ATP-independent in vitro binding affinity of the aforementioned BTK inhibitors to wild-type BTK.
(§1) Protein extracts were harvested in M-PER extraction buffer (Pierce Biotechnology, Rockford, IL) supplemented with 150 mM NaCl, 10 mM Dithiothreitol (DTT), Protease Inhibitor Cocktail Complete (Roche Diagnostics GmbH, Mannheim, Germany), and Phosphatase Inhibitor Cocktail Set II (Merck KGaA, Darmstadt, Germany) following the manufacturer’s guidelines. The fusion protein was labeled with a DNA tag containing the NFκB binding site fused to an amplicon for qPCR readout, which was added directly to the expression extract.
(§2) Kds were calculated using a standard dose–response curve fitting of the data using the Hill equation: Response = Background + (Signal – Background)/(1 + (Kd ^Hill Slope/Dose^Hill Slope). The Hill Slope was set to −1. A nonlinear least-square fit using the Levenberg–Marquardt algorithm was employed for curve fitting.

The next assay addresses T2, BTK C481S (Homo sapiens, UniProt Q06187, C481S).
T2 construct: made in house; host or cells: transiently transfected HEK293 cells (unpurified extract)
Nature of the assay: KdELECT competition binding, mutant BTK C481S. How it is done: as §1, §2

Assay [1] deals with T3, BTK (Homo sapiens, UniProt Q06187).
T3 construct: host or cells: transiently transfected HEK293 cells
T3 sequence (Q06187 whole entry): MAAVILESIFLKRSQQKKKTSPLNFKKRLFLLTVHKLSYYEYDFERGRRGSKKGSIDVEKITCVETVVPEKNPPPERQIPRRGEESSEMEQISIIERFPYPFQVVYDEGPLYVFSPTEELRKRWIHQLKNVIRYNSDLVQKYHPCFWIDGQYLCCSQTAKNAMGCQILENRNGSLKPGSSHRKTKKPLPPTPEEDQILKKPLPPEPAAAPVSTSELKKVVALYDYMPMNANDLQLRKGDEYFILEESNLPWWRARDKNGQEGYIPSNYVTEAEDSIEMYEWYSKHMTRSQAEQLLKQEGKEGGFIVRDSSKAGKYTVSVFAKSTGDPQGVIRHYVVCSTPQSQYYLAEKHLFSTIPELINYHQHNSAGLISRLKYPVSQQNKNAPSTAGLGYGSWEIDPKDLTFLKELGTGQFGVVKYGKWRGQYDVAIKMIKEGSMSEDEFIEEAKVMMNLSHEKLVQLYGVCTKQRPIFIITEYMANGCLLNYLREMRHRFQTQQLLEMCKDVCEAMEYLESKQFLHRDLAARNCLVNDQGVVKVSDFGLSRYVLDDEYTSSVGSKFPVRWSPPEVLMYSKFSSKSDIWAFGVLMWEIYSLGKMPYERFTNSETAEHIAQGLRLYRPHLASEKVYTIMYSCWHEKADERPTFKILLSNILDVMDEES
Nature of the assay: scanMAX binding POC, BTK. The settings on record: 1 μM; zero POC = competition comparable to positive control. From the text:
(§3) Comprehensive Characterization of Bruton’s Tyrosine Kinase Inhibitor Specificity, Potency, and
(§4) Biological Effects: Insights into Covalent and Non-Covalent Mechanistic Signatures
(§5) Antonia C. Darragh1, Andrew M. Hanna1, Justin H. Lipner2, Alastair J. King2, Nicole B. Servant1, Mirza Jahic1*
(§6) *To whom correspondence should be addressed: Mirza Jahic, e-mail address: Mirza.Jahic@discovery.eurofinsus.com
(§7) Supporting Table S1. Comparison of BTK inhibitor specificity to TEC family members. TEC family members are
(§8) Burton’s tyrosine kinase (BTK), tyrosine kinase expressed in hepatocellular carcinoma (TEC), bone marrow-
(§9) expressed kinase (BMX/ETK), and T cell-expressed kinase (TXK/RLK), and interleukin-2-inducible T cell kinase
(§10) A zero POC signifies that the compound

The target in a further assay is T4, BMX (Homo sapiens, UniProt P51813).
T4 sequence (P51813 1-675): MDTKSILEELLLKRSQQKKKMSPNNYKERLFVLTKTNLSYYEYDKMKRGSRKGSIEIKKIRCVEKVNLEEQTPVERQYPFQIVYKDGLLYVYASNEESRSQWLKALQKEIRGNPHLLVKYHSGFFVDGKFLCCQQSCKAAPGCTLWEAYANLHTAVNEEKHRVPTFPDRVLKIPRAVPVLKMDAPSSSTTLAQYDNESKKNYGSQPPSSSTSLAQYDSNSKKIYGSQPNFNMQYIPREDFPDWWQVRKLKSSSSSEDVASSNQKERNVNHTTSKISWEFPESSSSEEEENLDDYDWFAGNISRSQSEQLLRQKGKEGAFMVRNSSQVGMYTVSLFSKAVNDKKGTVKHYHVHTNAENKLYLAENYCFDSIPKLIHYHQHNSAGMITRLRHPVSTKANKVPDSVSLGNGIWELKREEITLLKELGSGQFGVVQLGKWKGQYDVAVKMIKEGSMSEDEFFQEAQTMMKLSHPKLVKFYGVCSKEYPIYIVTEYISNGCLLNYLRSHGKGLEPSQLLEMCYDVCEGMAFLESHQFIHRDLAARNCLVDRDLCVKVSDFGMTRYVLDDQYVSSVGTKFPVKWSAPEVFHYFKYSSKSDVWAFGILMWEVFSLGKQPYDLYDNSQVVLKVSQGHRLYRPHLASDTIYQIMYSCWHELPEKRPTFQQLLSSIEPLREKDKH
Kind of assay: scanMAX binding POC, BMX. The conditions noted are these: 1 μM.
Text: as §3, §4, §5, §6, §7, §8, §9, §10

For another assay, the target named is T5, MKK7 (Homo sapiens, UniProt O14733).
T5 sequence (O14733 1-419): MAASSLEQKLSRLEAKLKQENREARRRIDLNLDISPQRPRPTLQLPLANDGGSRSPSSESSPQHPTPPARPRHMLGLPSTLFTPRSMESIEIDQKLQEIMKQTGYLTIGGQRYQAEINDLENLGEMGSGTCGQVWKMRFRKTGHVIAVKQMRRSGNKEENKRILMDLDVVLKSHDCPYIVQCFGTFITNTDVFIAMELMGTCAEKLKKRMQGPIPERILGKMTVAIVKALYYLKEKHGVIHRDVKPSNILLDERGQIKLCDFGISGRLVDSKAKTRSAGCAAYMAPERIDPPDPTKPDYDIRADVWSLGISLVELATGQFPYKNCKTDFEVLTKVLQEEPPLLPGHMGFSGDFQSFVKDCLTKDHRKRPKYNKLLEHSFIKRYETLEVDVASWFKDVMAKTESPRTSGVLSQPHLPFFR
Nature of the assay: scanMAX binding POC, MKK7. The conditions noted are these: 1 μM.

For assay [2], the system named is 468 kinases/kinase domains. The settings on record: scanMAX at 1 μM; for selectivity: category by number of off-targets.
Procedure: The compounds were diluted directly into the assays such that the final concentration of DMSO was 0.9%. No enzyme purification steps were performed on the protein extracts before adding them to the reaction mixture, and the protein extracts were diluted 10,000-fold in the final reaction mixture (the final DNA-tagged enzyme concentration was less than 0.1 nM). Binding assay mixtures were incubated at 25 °C with shaking for 1 h. […] The concentration of wild-type or mutant BTK in the eluates was then determined using quantitative PCR.
The target of assay [3] is BTK. The settings on record: wild-type BTK; average of literature values; read-out: average published Kd for BTK; cited from earlier work.
The mark [4] stands for this setting: ATP-independent in vitro binding, 25 °C, read-out: Kd for wild-type BTK.
Where [5] appears, read: category by Kd for wild-type BTK, read-out: potency for BTK.
The mark [6] stands for this setting: wild-type BTK, average of N replicates, each in technical duplicate, read-out: average in-house Kd for BTK.
Where [7] appears, read: ATP-independent in vitro binding, 25 °C, read-out: Kd for BTK C481S.
Where [8] appears, read: N = 1, technical duplicate, read-out: average in-house Kd for BTK C481S.
[9] abbreviates: category by Kd for BTK C481S, read-out: potency for BTK C481S.

Where two headings read alike, the source gives them in different places.

T2 sequence (Q06187 whole entry C481S): as the sequence (Q06187 whole entry) above, with C481S counted along it
T1 sequence (Q06187 whole entry): as the sequence (Q06187 whole entry) above

As to `C=CC(=O)N1CCC[C@@H](c2ccc(C(N)=O)c3[nH]ccc23)C1` [Elsubrutinib], the Kd on wild-type BTK (setting [4]) is 2.9 nM; at wild-type BTK (setting [5]), 1 to 10 nM; at wild-type BTK (setting [6]), 2.9 nM; at BTK C481S (setting [7]), 460 nM; at BTK C481S (setting [8]) it was 460 nM; at BTK C481S (setting [9]) it was 100 to 1000 nM. Moreover, the Kd at BTK [3] was 3.1 nM. Moreover, on wild-type BTK (wild-type BTK), the “fold difference between in-house and published Kd's” value is recorded as 1.1 fold. The “BTK binding POC” value on BTK [1] is listed as 0.1% of control. The “BMX binding POC” value on BMX is given as 20% of control. The “MKK7 binding POC” value at MKK7 is given as 24% of control; at MKK7 (listed as elsubrutinib), “weak hit”. Moreover, the selectivity result in assay [2] is on record as “high (high (≤11 off-targets))”.

For `C[C@H]1CN(C2COC2)CCN1c1ccc(Nc2cc(-c3ccnc(N4CCn5c(cc6c5CC(C)(C)C6)C4=O)c3CO)cn(C)c2=O)nc1` [Fenebrutinib], on MKK7, the “MKK7 binding POC” value is on record as 89% of control.

In the case of `O=C(c1ccc(Oc2ccccc2)cc1Cl)c1c[nH]c2ncnc(N[C@@H]3CC[C@@H](CO)OC3)c12` [Nemtabrutinib], at BTK [1], the “BTK binding POC” value is listed as 0.6% of control. Moreover, the “BMX binding POC” value at BMX is given as 8.5% of control. The “MKK7 binding POC” value on MKK7 is recorded as 39% of control. The off-target hits in assay [2] (POC <35) is on record as 97. In addition, the Kd on BTK [3] is 46 nM.

In the case of `COc1ccc(F)cc1C(=O)NCc1ccc(-c2nn([C@@H](C)C(F)(F)F)c(N)c2C(N)=O)cc1` [Pirtobrutinib], the Kd on wild-type BTK (setting [4]) is 0.81 nM; on wild-type BTK (setting [5]), < 1 nM; at wild-type BTK (setting [6]), 0.81 nM; at BTK C481S (setting [7]), 0.89 nM; at BTK C481S (setting [8]), 0.89 nM; on BTK C481S (setting [9]) it was < 1 nM. Also, the Kd at BTK [3] is 0.9 nM. For the same molecule, at wild-type BTK (wild-type BTK), the “fold difference between in-house and published Kd's” value was found to be 1.1 fold. Also, on BTK C481S (BTK C481S), the “fold difference between in-house and published Kd” value came out at 2.9 fold. For the same molecule, the “BTK binding POC” value on BTK [1] was 0% of control. The “BMX binding POC” value at BMX is given as 51% of control. Further, the “MKK7 binding POC” value on MKK7 is on record as 91% of control. The selectivity result in assay [2] is reported as “moderate (moderate (12–50 off-targets))”.

For `C=CC(=O)Nc1cccc(Oc2nc(Nc3ccc(N4CCN(C)CC4)cc3)nc3ccoc23)c1` [Poseltinib], the Kd at wild-type BTK (setting [4]) is 1.5 nM; on wild-type BTK (setting [5]), 1 to 10 nM; at wild-type BTK (setting [6]), 1.5 nM; on BTK C481S (setting [7]) it was > 1000 nM; at BTK C481S (setting [8]), > 1000 nM; at BTK C481S (setting [9]), > 1000 nM. At BTK C481S (ATP-independent in vitro binding, 25 °C), the “Kd for BTK C481S” value is on record as “did not demonstrate any binding at the concentrations tested”. Further, at BTK [1], the “BTK binding POC” value was 0.1% of control. Further, the “BMX binding POC” value on BMX is 12% of control. For the same molecule, the “MKK7 binding POC” value at MKK7 is listed as 100% of control. Besides, the selectivity entry in assay [2] is listed as “moderate (moderate (12–50 off-targets))”.

As to `C=CC(=O)Nc1cccc(Nc2nc(Nc3ccc(OCCOC)cc3)ncc2F)c1` [Spebrutinib], the “BTK binding POC” value at BTK [1] is 0% of control. On BMX, the “BMX binding POC” value is on record as 10% of control. Further, the “MKK7 binding POC” value at MKK7 is on record as 79% of control.
